Results: patent publication US20090325857A1, “USE OF OPIOID RECEPTOR ANTAGONISTS” (priority 2006, published 2009)

How the values were obtained:
Type in all cases: cell-based, human
[1] = system: epidermal melanocytes (EM); assay: Melanin content in epidermal melanocytes (EM); details: 4 days incubation, baseline = 100%
Protocol: (§1) Melanocytes are isolated and cultured either from hair follicles or epidermal skin derived from a normal adult scalp biopsy. Follicular and epidermal melanocytes are passaged in T25 plastic culture flasks to maximum 4th to maximize in vivo-like behavior. Cells are seeded into flasks and after 2 days are incubated with test substances added to the cell growth medium. The experimental set-up includes flasks in which the cells are either not treated (control) or incubated for 4 days with the appropriate amount of opioid antagonists, to assess the effect on melanin production.
(§2) After 4 days incubation, control and treated cells are collected and melanin is extracted from lysed cells. Melanin is quantified by measuring the spectrophotometric OD at 475 nm and calculating against a standardized curve. The resulting value is standardized against the number of cells counted per treatment and is given as micrograms of melanin per million cells. As control known melanin production inducing references IBMX and full medium are used.

[2] = system: hair follicle melanocytes; assay: Proliferation of hair follicle melanocytes (direct cell counting, hemocytometry); details: hair follicle cells, baseline = 100%
Protocol: as §1
(§3) Furthermore, the hair follicle cells were analysed for their proliferation and dentricity. Proliferation has been assessed by direct cell counting using hemocytometry. Cell dendricity has been assessed by phase contrast microscopy with representative photo documentation. It can be seen that the opioate receptor antagonists also have an effect on the proliferation and dentricity further supporting the use of the opiate receptor antagonists for the prevention of the graying of hair and/or for restoration and/or maintenance of the natural hair color

[3] = system: hair follicle melanocytes; assay: Dendricity of hair follicle melanocytes (phase contrast microscopy); details: hair follicle cells, baseline = 100%
Protocol: as §1, §3

[4] = system: hair follicle melanocytes (HFM); assay: Melanin content in hair follicle melanocytes (HFM); details: 4 days incubation, baseline = 100%
Description: Particularly, the activity of an agent in blocking an opioid receptor can be further determined by measuring the efficacy of the agent to cause a substantial increase of the total intracellular melanin production in human primary follicular melanocytes.
The effect of opioid antagonists on melanin production in hair follicular melanocytes can be measured in a cell-based in vitro assay.
as §1, with “cultured” for “cultured either”, “follicles” for “follicles or epidermal skin”, “Follicular” for “Follicular and epidermal”
as §2, with “cells.” for “cells. As control known melanin production inducing references IBMX and full medium are used.”
as §1, §2

C=CCN1CC[C@]23c4c5ccc(O)c4O[C@H]2C(=O)CC[C@@]3(O)[C@H]1C5 [Naloxone]
Melanin content in EM ([1]; 1 μM): 61% | Melanin content in EM ([1]; 100 μM): 54% | Proliferation of melanocytes ([2]; 1 μM): 123% | Dentricity ([3]; 1 μM): 110% | Dentricity ([3]; 100 μM): 104%

beta endorphin (YGGFMTSEKSQTPLVTLFKNAIIKNAYKKGE; Beta-endorphin; UniProt P01189 237-267, looked up) [μ-opiate agonist]
Melanin content in HFM ([4]; concentration not given): 92%

CC(C)Cn1c(=O)n(C)c(=O)c2[nH]cnc21 [IBMX]
Melanin content in HFM ([4]; concentration not given): 140% | Proliferation of melanocytes ([2]; concentration not given): 140% | Dentricity ([3]; concentration not given): 148%

C=CCN1CC[C@]23c4c5ccc(O)c4O[C@H]2/C(=N/N=C2\CC[C@@]4(O)[C@H]6Cc7ccc(O)c8c7[C@@]4(CCN6CC=C)[C@H]2O8)CC[C@@]3(O)[C@H]1C5 [Naloxonazine]
Melanin content in EM ([1]; 1 μM): 40% | Melanin content in EM ([1]; 100 μM): 25% | Melanin content in HFM ([4]; 1 μM): 120% | Melanin content in HFM ([4]; 100 μM): 242% | Proliferation of melanocytes ([2]; 1 μM): 109% | Dentricity ([3]; 1 μM): 105%
